We go through two molecules from patent US8772348B2, “Materials and methods for pest control” (priority 2009, dated 2014).

The test system of data set [1] is Susceptible Musca domestica. The data set is described as follows: Contact bioassay of emulsified concentrate formulations on filter paper discs. Conditions: EC formulation on filter paper. How it is done: (§1) A commercially-available permethrin 57 g L^−1 EC (Ectiban EC 57; Universal Cooperatives, Minneapolis, Minn.) was included for comparison. Except rosalva, the 50% EC semiochemical formulations were generated by combining 500 mL AI, 430 mL canola oil (Publix, Lakeland, Fla.), 10 mL xylene, 50 mL Triton X-100 (Acros Organics Nev., Fair Lawn, N.J.) and 10 mL Agsolex-8 (International Specialty Products, Wayne, N.J.). The rosalva formulation contained all of the above-mentioned ingredients, with canola oil concentration reduced to 400 mL L^−1, Triton X-100 concentration increased to 75 mL L^−1, and 5 mL L^−1 Antifoam B silicone emulsion (Mallinckrodt Baker, Phillipsburg, N.Y.) included.
Briefly, Whatman No. 1 filter paper discs (63.58 cm^2) are impregnated with 1.5 ml serially diluted formulations in 20 emulsified concentrates and 50 emulsified concentrates, respectively, and subsequently dried for about an hour. Then, house flies are divided into seven sets: three sets as the experiment, three sets as the positive control, and one set as the negative control. Each set consists of twenty six-to-ten-day old adult flies. […] The positive control set is exposed to paper discs impregnated with geranyl acetone, rosalva or citronellol. The negative control set is exposed to paper discs impregnated with acetone solution. Throughout the exposure periods, each set is provided with 10% sucrose solution and sufficient air circulation. Ataxic flies are considered dead. The mortality rate and the LC values are determined using the same procedures as is illustrated in Example 2.

In data set [2] the test system is Aedes aegypti. Conditions: EC formulation on military fabric. How it is done:
as §1
Briefly, a piece of 10×10 cm^2 fabric (TenCate Defender™) is impregnated with 2 ml of serially diluted 20-emulsifiable concentrate or 50-emulsifiable concentrate formulations, respectively, and subsequently dried for about an hour. Also, six-to-ten-day-old, never blood-fed, adult female Ae. aegypti mosquitoes are obtained. The mosquitoes are divided into seven sets: three sets as the experiment, three sets as the positive control, and one set as the negative control. Each set consists of 20 mosquitoes. […] The positive control set is exposed to fabric pieces treated with geranyl acetone, rosalva or citronellol. The negative control set is exposed to fabric pieces treated with acetone solution. Throughout the exposure periods, each set is provided with 10% sucrose solution and sufficient air circulation. Ataxic mosquitoes are considered dead. The mortality rate and the LC values are determined using the same procedures as are illustrated in Example 2.

The test system of data set [3] is Field-collected Musca domestica. Conditions: for % mortality: formulation on plywood panels, 3.33 mg/cm^2 (footnote 1.67). The protocol: Briefly, one Musca domestica strain and one other Musca domestica strain are obtained as is illustrated in Example 3. Each fly strain is divided into seven sets: three sets as the experiment, three sets as the positive control, and one set as the negative control. Flies are assayed on unpainted plywood panel boards that have been previously exposed to natural summer weather conditions for at least 10 days. […] The formulation is applied at a uniform rate of 7.5 ml per 225 cm^2, sufficient to cover the entire panel without dripping. Subsequently, the treated panel boards are dried for about an hour.
In each set, 20 adult flies are placed onto panel boards. Flies are secured with wooden embroidery hoops, covered with a coarse mesh screen cloth previously sprayed with the respective formulation. After 4 hours, flies are transferred into a clean jar. The mortality rate is measured 24 hours after the transfer, and is determined using the same procedures as are illustrated in Example 2.
Plywood panels (225 cm^2) were treated with chemicals at a rate of 1.67 mg cm^−2. Panels were treated on day 0 and was held until exposure on post-treatment day. Mosquitoes were exposed to chemicals for 2 h, and mortality rate was assessed 24 h after initial exposure. Control contained formulation ingredients without semiochemicals.

Data set [4] concerns Susceptible Musca domestica. Conditions: for % mortality on various days following treatment: formulation on filter paper at LC99-based concentration of each compound. The protocol: Briefly, after Musca domestica is exposed to formulations for 24 hours at the LC99 concentration specific for each compound, each set of flies is transferred into a separate glass jar, and held for another 24 hours when mortality is scored. The mortality rate is measured on multiple days with new sets of flies up to 14 days (Day 1 starts at 24 hours after the transfer). The mortality rate is determined using the same procedures as is illustrated in Example 2.
Concentrations were generated from technical-based LC99 values obtained following a 24 h-exposure period on filter paper. Paper was treated on day 0 and was held until exposure on post-treatment day. Control contained formulation ingredients without semiochemicals.

For data set [5], the system named is Stomoxys calcitrans. How it is done:
Briefly, each fly strain is divided into eight sets: three sets as the experiment, four sets as the positive control, and one set as the negative control. Flies are assayed on unpainted plywood panel boards that have been previously exposed to natural summer weather conditions for at least 10 days. […] The positive control set is treated with permethrin, geranyl acetone, rosalva or citronellol. The negative control set is treated with water. The formulation is applied at a uniform rate of 7.5 ml per 225 cm^2, sufficient to cover the entire panel without dripping. Subsequently, the treated panel boards are dried for about an hour.
In each set, 20 adult flies are placed onto the panel boards. Flies are secured with wooden embroidery hoops, covered with a coarse mesh screen cloth previously sprayed with the respective formulation. After 4 hours, flies are transferred into a clean jar. The mortality rate is measured 24 hours after the transfer, and is determined using the same procedures as are illustrated in Example 2.
Plywood panels (225 cm^2) were treated with chemicals at a rate of 1.67 mgcm^−2. Panels were treated on day 0 and held until exposure on post-treatment day. Mosquitoes were exposed to chemicals for 2 h, and mortality rate was assessed 24 h after initial exposure. Control contained formulation ingredients without semiochemicals.

For data set [6], the system named is Anopheles quadrimaculatus. Conditions: for mortality at the 24-hour examination: 24-hour exposure. The source says: (§2) Briefly, Anopheles quadrimaculatus (Say) is obtained from the United States Department of Agriculture, ARS, Center for Medical, Agricultural and Veterinary Entomology, Gainesville, Fla., and adults are held in the laboratory of the Entomology and Nematology Department, University of Florida with no insecticide exposure or introduction of other insects. The Asian tiger mosquito, Ae. albopictus (Skuse) is obtained from a laboratory colony of the Entomology and Nematology Department, University of Florida.
(§3) Each strain is divided into four sets: three sets as the experiment and the other set as the control. […] The mortality rate is measured after a 2-hour, 4-hour, and 24-hour exposure period. Ataxic mosquitoes are considered dead. The mortality rate and the LC values are determined using the same procedures as is illustrated in Example 2.

The test system of data set [7] is Aedes albopictus. Conditions: for mortality at the 24-hour examination: 24-hour exposure.
Text: as §2, §3

Like-named read-outs stand apart in the source and are kept apart here.

In the case of `C/C=C/C(=O)C1=C(C)CCCC1(C)C` [Beta damascone, beta damascone], the LC90 in data set [1] (24 h constant exposure) came out at 618.12 μg cm^−2; in data set [1] (48 h constant exposure), 516.16 μg cm^−2; in data set [2] (exposure period 2 hours) it was 910.52 μg cm^−2; in data set [2] (exposure period 4 hours) it was 648.16 μg cm^−2; in data set [2] (exposure period 24 hours), 534.26 μg cm^−2. The results for the mortality rate in data set [3] (in vivo), in data set [4] (in vivo) and in data set [5] (in vivo) were 95.0-100.0%, 99% and 99-100%, respectively. The “mortality at the 24-hour examination” value in data set [6] and in data set [7] was “All mosquitoes were dead” each time.

Regarding `CC1(C)CCCC2=C1CC(C=O)CC2` (stereo not shown) [Cyclemone A, 2-naphthaldehyde, 1,2,3,4,5,6,7,8-octahydro-8,8-dimethyl], the LC50 amounted to 468.96 μg cm^−2 in data set [1] (24 h constant exposure); 440.04 μg cm^−2 in data set [1] (48 h constant exposure); 180.23 μg cm^−2 in data set [2] (exposure period 2 hours); 172.56 μg cm^−2 in data set [2] (exposure period 4 hours); 136.19 μg cm^−2 in data set [2] (exposure period 24 hours); 14.29 μg cm^−2 in data set [6] (2 h constant exposure). Also, the LC50 in data set [6] (4 h constant exposure) is listed as 12.27 μg cm^−2; in data set [7] (2 h constant exposure) it was 19.88 μg cm^−2; in data set [7] (4 h constant exposure), 18.72 μg cm^−2. For the same molecule, the LC90 in data set [1] (24 h constant exposure) is given as 759.00 μg cm^−2; in data set [1] (48 h constant exposure) it was 659.92 μg cm^−2; in data set [2] (exposure period 2 hours), 452.11 μg cm^−2; in data set [2] (exposure period 4 hours) it was 488.13 μg cm^−2; in data set [2] (exposure period 24 hours) it was 330.22 μg cm^−2. The “% mortality” value in data set [3] (Alachua strain) amounted to 100.00a %; in data set [3] (Gilchrist strain) it was 95.00a %; in data set [5] (S. calcitrans, formulation on plywood panels at 1.67 mg cm^−2, mortality 24 h after), 100.00a %. This molecule displayed a mortality rate in data set [4] (Day 1 and Day 2) of 99%. Moreover, the “% mortality on various days following treatment” value is 96.25a % in data set [4] (day 1); 90.00a % in data set [4] (day 2); 80.00a % in data set [4] (day 3); 77.50ab % in data set [4] (day 5); 78.75a % in data set [4] (day 7); 63.75a % in data set [4] (day 8). In addition, the “% mortality on various days following treatment” value in data set [4] (day 14) stood at 6.25ab %. Moreover, the “mortality at the 24-hour examination” value in data set [6] and in data set [7] was “All mosquitoes were dead” each time.
